Measured values reported in US20240041889A1, “COMBINATION THERAPY WITH ADENOSINE RECEPTOR ANTAGONISTS” (Teon Therapeutics, Inc., priority 2020, published 2024).

Legend:
CT26 tumor = assay: Combination with anti-PD-1 in a CT26 model; format: in vivo, Balb/C mice; settings: intraperitoneally for 16 days
Protocol: Methods: Balb/C inbred female mice, aged at 8-9 week, were purchased from Charles River. On the day of inoculation (Day 0), CT26 cells were harvested, washed and counted. Cells were re-suspended as single cell solution in PBS at a concentration of 5×10^6 cells/mL at the final step. Immediately, five hundred thousand (5×10^5) of CT26 cells suspended in 0.1 mL PBS were injected in the right flank of Balb/C mice subcutaneously using 27G needles. When palpable, tumors were measured by a caliper and tumor volume (mm^3) were calculated by length×width×height×0.5236. Mice with the tumor size approximate to 100 mm^3 were randomly assigned into one of four groups (n=10). Each group received vehicle (BID), A2B antagonist Compound 1 at 3 mg/kg (BID), mouse anti-PD-1 (RMP1-14) at 5 mg/kg (Q2D), or Compound 1 (3 mg/kg)+RMP1-14 (5 mg/kg) intraperitoneally for 16 days. Tumor size and body weight were determined every 2-3 days.

MC38 tumor model = assay: Fibrosis in a MC38 tumor model; format: in vivo
[1] = system: tumor-infiltrating immune cells; assay: Mechanistic study in a MC38 model, FACS analysis of tumor tissue; format: in vivo, C57BL/6 mice; settings: 6 days after drug treatment
Protocol: Methods: C57BL/6 inbred female mice, aged at 6-8 week, were purchased from Shanghai Lingchang Biotechnology Co., Ltd. On the day of inoculation (Day 0), MC38 cells were harvested, washed and counted. Cells were re-suspended as single cell solution in PBS at a concentration of 1×10^6 cells/mL at the final step. Immediately, […] (1×10^5) of MC38 cells suspended in 0.1 mL PBS were injected in the right flank of C57BL/6 mice subcutaneously using 27G needles. When palpable, tumors were measured by a caliper and tumor volume (mm^3) were calculated by length×width×height×0.5236. Mice with the tumor size approximately to 80-100 mm^3 were randomly assigned into one of four groups (n=8). Each group received vehicle (BID), A2B antagonist Compound 1 at 3 mg/kg (BID), mouse anti-PD-1 (RMP1-14) at 10 mg/kg (Q3D), or Compound 1 (3 mg/kg)+RMP1-14 (10 mg/kg) intraperitoneally. Tumor tissues were collected 6 days after drug treatment and made single cell suspension for FACS analysis to detect tumor-infiltrating immune cells.

B16F10 tumor = assay: Combination with anti-PD-1 in a B16F10 model; format: in vivo, C57BL/6 mice; settings: intraperitoneally for 7 days
Protocol: Methods: C57BL/6 inbred female mice, aged at 8-9 week, were purchased from Charles River. On the day of inoculation (Day 0), B16F10 cells were harvested, washed and counted. Cells were re-suspended as single cell solution in PBS at a concentration of 5×10^6 cells/mL at the final step. Immediately, five hundred thousand (5×10^5) of B16F10 cells suspended in 0.1 mL PBS were injected in the right flank of C57BL/6 mice subcutaneously using 27G needles. When palpable, tumors were measured by a caliper and tumor volumes (mm^3) were calculated by length×width×height×0.5236. Mice with the tumor size approximate to 100 mm^3 were randomly assigned into one of four groups (n=10). Each group received vehicle (BID), A2B antagonist Compound 1 at 1 mg/kg (BID), mouse anti-PD-1 (RMP1-14) at 10 mg/kg (Q3D), or Compound 1 (1 mg/kg)+RMP1-14 (10 mg/kg) intraperitoneally for 7 days. Tumor size and body weight were determined every 2-3 days.

CCCn1c(=O)c2[nH]c(-c3cnn(Cc4cccc(C(F)(F)F)c4)c3)nc2n(CC)c1=O [Compound 1, 8-(1-(3-(Trifluoromethyl)benzyl)-1H-pyrazol-4-yl)-3-ethyl-1-propyl-1H-purine-2,6(3H,7H)-dione]
effect on mouse body weight (CT26 tumor; CT26 model): no significant effect
maximal CT26 tumor growth inhibition (TGI) (CT26 tumor; Compound 1 3 mg/kg BID, RMP1-14 5 mg/kg Q2D, alone or combined): 47.5%
fibrosis (MC38 tumor model): reduces fibrosis
increase of the amount of dendritic cells (DCs) ([1]; Compound 1 3 mg/kg BID i.p.): 34%
reduction of the amount of myeloid-derived suppressor cells (MDSCs) ([1]; Compound 1 3 mg/kg BID i.p.): 41%
reduction of the amount of regulatory T cells (Tregs) ([1]; Compound 1 3 mg/kg BID i.p.): 28%
increase of the amount of CD8+ T cells ([1]; Compound 1 3 mg/kg BID, RMP1-14 10 mg/kg Q3D, alone or combined, i.p.): 58%
increase of the amount of CD4+ T cells ([1]; Compound 1 3 mg/kg BID, RMP1-14 10 mg/kg Q3D, i.p.): 84%
effect on mouse body weight (B16F10 tumor; B16F10 model): no effect
maximal B16F10 tumor growth inhibition (TGI) (B16F10 tumor; Compound 1 1 mg/kg BID, RMP1-14 10 mg/kg Q3D, alone or combined): 48.7%
